Values of other authors as cited in patent US7057165B2, “Probe for mass spectrometry” (Sense Proteomic Ltd., priority 2001, dated 2006).

Target: T1, lectin from Arachis hypogea (Arachis hypogaea, UniProt P02872)
T1 construct: biotin (biotinylated lectin)
T1 sequence (P02872 24-259 limits assumed): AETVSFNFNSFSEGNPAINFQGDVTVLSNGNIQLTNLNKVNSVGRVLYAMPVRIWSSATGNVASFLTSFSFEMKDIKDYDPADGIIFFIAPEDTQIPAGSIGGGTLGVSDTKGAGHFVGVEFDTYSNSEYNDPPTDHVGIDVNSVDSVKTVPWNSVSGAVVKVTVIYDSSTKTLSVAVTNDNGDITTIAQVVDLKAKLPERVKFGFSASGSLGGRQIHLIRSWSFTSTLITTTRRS

SMILES: OC[C@H]1O[C@@H](O[C@H]2[C@H](O)[C@@H](O)C(O)O[C@@H]2CO)[C@H](O)[C@@H](O)[C@H]1O (stereo partly shown) [lactose]
- binding constant for this lectin: millimolar range
